Data reported in patent US8183262B2, “Pyridine derivatives as mGluR2 antagonists” (Hoffmann-La Roche Inc., priority 2007, dated 2012).

target: T1, rat mGlu2 receptor (Rattus norvegicus, UniProt P31421); assay: [3H]-LY354740 binding on mGlu2 transfected CHO cell membranes; conditions: inhibition of 10 nM [3H]-LY354740 binding, membranes of CHO cells transfected with rat mGlu2, room temperature, 1 hour
T1 construct: expressed in transfected cells; membranes prepared
Excerpt: [^3H]-LY354740 Binding on mGlu2 Transfected CHO Cell Membranes. Transfection and Cell Culture
cDNA encoding the rat mGlu2 receptor protein in pBluescript II was subcloned into the eukaryotic expression vector pcDNA I-amp from Invitrogen Ltd (Paisley, UK). This vector construct (pcD1mGR2) was co-transfected with a psvNeo plasmid encoding the gene for neomycin resistance, into CHO cells by a modified calcium phosphate method described by Chen & Okayama (1988). The cells were maintained in Dulbecco's Modified Eagle medium with reduced L-glutamine (1 mM final concentration), 36 mg/L L-Proline and 10% dialysed foetal calf serum from Gibco-Invitrogen; the medium was supplemented with 500 microM α-methyl-4-carboxyphenylglycine (MCPG). Selection was made in the presence of G-418 (300 ug/ml final concentration). Clones were identified by reverse transcription of 5 μg total RNA, followed by PCR using mGlu2 receptor specific primers 5′-[…]-3′ and 5′-[…]-3′ in 60 mM Tris HCl (pH 10), 15 mM (NH4)2SO4, 2 mM MgCl2, 25 units/ml Taq Polymerase with 30 cycles annealing at 60° C. for 1 min., extention at 72° C. for 30 s, and 1 min. 95° C. denaturation.
Cells, cultured as above, were harvested and washed three times with cold PBS and frozen at −80° C. The pellet was resuspended in cold 20 mM HEPES-NaOH buffer containing 10 mM EDTA (pH 7.4), and homogenised with a polytron (Kinematica, A G, Littau, Switzerland) for 10 s at 10 000 rpm. After centrifugation for 30 min. at 4° C., the pellet was washed once with cold 20 mM HEPES-NaOH buffer containing 0.1 mM EDTA, (pH 7.4). After a second centrifugation for 30 min. at 4° C. the pellet was resuspended in cold 20 mM HEPES-NaOH buffer containing 0.1 mM EDTA, (pH 7.4). Protein content was measured using the Micro BCA method from Pierce-Perbio (Rockford, Ill., USA) using bovine serum albumin as standard.
After thawing, the membranes were resuspended in cold 50 mM Tris-HCl buffer containing 2 mM MgCl2 (pH 7.4) (binding buffer). The final concentration of the membranes in the assays was 25 μg protein/ml. Inhibition experiments were performed with membranes incubated with 10 nM [^3H]-LY354740 at room temperature, for 1 hour, in presence of various concentrations of the compound to be tested. Following the incubations, membranes were filtered onto Whatmann GF/B glass fiber filters or onto GF/B Unifilter plates and washed 5 times with cold binding buffer. Non specific binding was measured in the presence of 10 μM (2S,2′R,3′R)-2-(2′3′-Dicarboxycyclopropyl)glycine (DCG IV from Tocris, Ellisville, Mo. USA). After transfer of the filters into plastic vials containing 10 ml of Ultima-gold scintillation fluid from Perkin-Elmer (Boston, Mass., USA), the radioactivity was measured by liquid scintillation in a Tri-Carb 2500 TR counter (Packard, Zürich, Switzerland). For 96-Unifilter plates the radioactivity was measured after addition of Microscint 40 scintillation fluid (Perkin Elmer, Boston Mass.) using a TopCount NXT (Packard)
The inhibition curves were fitted with a four parameter logistic equation giving IC50 values, and Hill coefficients.

T1 sequence (P31421 19-872): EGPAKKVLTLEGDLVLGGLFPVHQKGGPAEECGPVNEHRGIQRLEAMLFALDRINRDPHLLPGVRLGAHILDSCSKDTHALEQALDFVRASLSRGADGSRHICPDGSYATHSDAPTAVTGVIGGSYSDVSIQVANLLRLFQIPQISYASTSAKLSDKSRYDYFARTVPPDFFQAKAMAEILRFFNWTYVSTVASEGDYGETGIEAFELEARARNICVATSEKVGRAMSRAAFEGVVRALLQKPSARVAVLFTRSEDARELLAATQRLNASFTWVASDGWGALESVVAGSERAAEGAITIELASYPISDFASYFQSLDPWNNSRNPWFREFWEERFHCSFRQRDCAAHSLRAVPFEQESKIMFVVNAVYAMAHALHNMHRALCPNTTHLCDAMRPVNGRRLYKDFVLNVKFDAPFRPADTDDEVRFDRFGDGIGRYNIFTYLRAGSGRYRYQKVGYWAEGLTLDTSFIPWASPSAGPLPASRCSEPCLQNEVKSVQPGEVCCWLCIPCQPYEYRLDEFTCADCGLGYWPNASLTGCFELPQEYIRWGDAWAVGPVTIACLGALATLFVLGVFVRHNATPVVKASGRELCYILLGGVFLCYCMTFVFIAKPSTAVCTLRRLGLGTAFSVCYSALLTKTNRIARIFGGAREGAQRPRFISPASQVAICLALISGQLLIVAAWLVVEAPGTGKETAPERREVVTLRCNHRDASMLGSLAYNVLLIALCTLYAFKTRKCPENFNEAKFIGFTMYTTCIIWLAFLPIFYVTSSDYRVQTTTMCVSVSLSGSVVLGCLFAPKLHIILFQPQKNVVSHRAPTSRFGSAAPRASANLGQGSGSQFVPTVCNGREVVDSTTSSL

In order of rising Ki:
1. Cc1cc(-c2ccc(C(F)(F)F)cc2)cc(-c2cccc(-c3cccc(S(=O)(=O)O)c3)n2)n1 [Example 345, 3-[6′-Methyl-4′-(4-trifluoromethyl-phenyl)-[2,2′]bipyridinyl-6-yl]-benzenesulfonic acid]  0.7 nM
2. Cc1cc(-c2ccc(C(F)(F)F)cc2)cc(-c2ccnc(-c3cccc(NS(N)(=O)=O)c3)n2)n1 [Example 338, N-(3-{4-[6-Methyl-4-(4-trifluoromethyl-phenyl)-pyridin-2-yl]-pyrimidin-2-yl}-phenyl)-sulfamide]  1 nM
3. CC(C)(C)NS(=O)(=O)c1cccc(-c2cn(-c3cc(C(F)(F)F)cc(-c4ccc(C(F)(F)F)cc4)n3)cn2)c1 [Example 280, N-tert-Butyl-3-{1-[4-trifluoromethyl-6-(4-trifluoromethyl-phenyl)-pyridin-2-yl]-1H-imidazol-4-yl}-benzenesulfonamide]  3 nM
4. Cc1cc(-c2ccc(C(F)(F)F)cc2)cc(-c2ccnc(-c3cccc(NS(C)(=O)=O)c3)n2)n1 [Example 330, N-(3-{4-[6-Methyl-4-(4-trifluoromethyl-phenyl)-pyridin-2-yl]-pyrimidin-2-yl}-phenyl)-methanesulfonamide]  4 nM
5. Cc1cc(-c2ccc(C(F)(F)F)cc2)cc(-c2ccnc(-c3cccc([N+](=O)[O-])c3)n2)n1 [Example 322, 4-[6-Methyl-4-(4-trifluoromethyl-phenyl)-pyridin-2-yl]-2-(3-nitro-phenyl)-pyrimidine]  9 nM
6. Cc1cc(-c2ccc(C(F)(F)F)cc2)cc(-c2cccc(-c3cccc(NS(=O)(=O)NC(=O)OC(C)(C)C)c3)n2)n1 [Example 334, N-(tert-Butoxycarbonyl)-N′-{3-[6′-methyl-4′-(4-trifluoromethyl-phenyl)-[2,2′]bipyridinyl-6-yl]-phenyl}-sulfamide]  11 nM
7. Nc1ccc(-c2ncn(-c3cc(C(F)(F)F)cc(-c4ccc(C(F)(F)F)cc4)n3)n2)cn1 [Example 277, 5-{1-[4-Trifluoromethyl-6-(4-trifluoromethyl-phenyl)-pyridin-2-yl]-1H-[1,2,4]triazol-3-yl}-pyridin-2-ylamine]  71 nM

system: not given; assay: not given; conditions: not given

First: Cc1cc(-c2ccc(Cl)cc2)nc(-c2nc(-c3ccc(N)nc3)no2)n1 [Example 137, 5-{5-[4-(4-Chloro-phenyl)-6-methyl-pyrimidin-2-yl]-[1,2,4]oxadiazol-3-yl}-pyridin-2-ylamine]
Second: Cc1cc(-c2ccc(C(F)(F)F)cc2)nc(-c2nc(-c3ccc(S(N)(=O)=O)cc3)no2)n1 [Example 118, 4-{5-[4-Methyl-6-(4-trifluoromethyl-phenyl)-pyrimidin-2-yl]-[1,2,4]oxadiazol-3-yl}-benzenesulfonamide]
The melting point of the first is lower: 258 °C for the first, 326 °C for the second.

Going from `Cc1cc(-c2ccc(C(F)(F)F)cc2)nc(-c2cccc(-c3cccc(S(=O)(=O)NC(C)(C)C)c3)c2)n1` [Example 165, 3′-[4-Methyl-6-(4-trifluoromethyl-phenyl)-pyrimidin-2-yl]-biphenyl-3-sulfonic acid tert-butylamide] to `Cc1cc(-c2ccc(C(F)(F)F)cc2)nc(-c2ccnc(-c3cccc(S(N)(=O)=O)c3)c2)n1` [Example 168, 3-{4-[4-Methyl-6-(4-trifluoromethyl-phenyl)-pyrimidin-2-yl]-pyridin-2-yl}-benzenesulfonamide], the melting point rises from 163 °C to 218.5 °C.

Going from `Cc1cc(-c2ccc(C(F)(F)F)cc2)nc(-c2cccc(-c3cnc(N)nc3)c2)n1` [Example 115, 5-{3-[4-Methyl-6-(4-trifluoromethyl-phenyl)-pyrimidin-2-yl]-phenyl}-pyrimidin-2-ylamine] to `Cc1cc(-c2ccc(C(F)(F)F)cc2)nc(-n2cnc(-c3ccc(N)nc3)n2)n1` [Example 151, 5-{1-[4-Methyl-6-(4-trifluoromethyl-phenyl)-pyrimidin-2-yl]-1H-[1,2,4]triazol-3-yl}-pyridin-2-ylamine], the melting point falls from 290 °C to 244 °C.

Going from `NS(=O)(=O)c1ccc(-c2noc(-c3nc(-c4ccc(Cl)cc4)cc(C(F)(F)F)n3)n2)cc1` [Example 17, 4-{5-[4-(4-Chloro-phenyl)-6-trifluoromethyl-pyrimidin-2-yl]-[1,2,4}oxadiazol-3-yl]-benzenesulfonamide] to `NS(=O)(=O)c1cccc(-c2cccc(-c3nc(-c4ccc(C(F)(F)F)cc4F)cc(C(F)(F)F)n3)c2)c1` [Example 412, 3′-[4-(2-Fluoro-4-trifluoromethyl-phenyl)-6-trifluoromethyl-pyrimidin-2-yl]-biphenyl-3-sulfonic acid amide], the melting point falls from 289.5 °C to 224.5 °C.

Going from `Cc1cc(-c2ccc(Cl)c(Cl)c2)nc(-c2cccc(-c3cccc(S(N)(=O)=O)c3)c2)n1` [Example 193, 3′-[4-(3,4-Dichloro-phenyl)-6-methyl-pyrimidin-2-yl]-biphenyl-3-sulfonic acid amide] to `Cc1cc(-c2ccc(Cl)c(C)c2)nc(-c2cccc(-c3cccc(S(N)(=O)=O)c3)c2)n1` [Example 379, 3′-[4-(4-Chloro-3-methyl-phenyl)-6-methyl-pyrimidin-2-yl]-biphenyl-3-sulfonic acid amide], the melting point falls from 206.5 °C to 201 °C.

Compared with `Nc1ccc(-c2cn(-c3nc(-c4ccc(Cl)cc4)cc(C4CC4)n3)cn2)cn1` [Example 49, 5-{1-[4-(4-Chloro-phenyl)-6-cyclopropyl-pyrimidin-2-yl]-1H-imidazol-4-yl}-pyridin-2-ylamine], `Cc1cc(-c2ccc(Cl)c(Cl)c2)nc(-n2cnc(-c3ccc(N)nc3)c2)n1` [Example 145, 5-{1-[4-(3,4-Dichloro-phenyl)-6-methyl-pyrimidin-2-yl]-1H-imidazol-4-yl}-pyridin-2-ylamine] is lower in melting point: 220 to 222 °C for the first, 213 °C for the second.

Compared with `CC(C)(C)NS(=O)(=O)c1cnc(-c2cn(-c3cc(C(F)(F)F)cc(-c4ccc(C(F)(F)F)cc4)n3)cn2)s1` [Example 281, 2-{1-[4-Trifluoromethyl-6-(4-trifluoromethyl-phenyl)-pyridin-2-yl]-1H-imidazol-4-yl}-thiazole-5-sulfonic acid tert-butylamide], `Cc1cc(-c2ccc(C(F)(F)F)cc2)cc(-c2cccc(-c3ccc(S(=O)(=O)NC(C)(C)C)s3)n2)n1` [Example 305, 5-[6′-Methyl-4′-(4-trifluoromethyl-phenyl)-[2,2′]bipyridinyl-6-yl]-thiophene-2-sulfonic acid tert-butylamide] is lower in melting point: 236 °C for the first, 227 °C for the second.

Compound `Cc1cc(-c2ccc(C(F)(F)F)cc2)cc(-c2cccc(-c3cccc(S(=O)(=O)NCc4ccc(F)cc4)c3)n2)n1` [Example 433, N-(4-Fluoro-benzyl)-3-[6′-methyl-4′-(4-trifluoromethyl-phenyl)-[2,2′]bipyridinyl-6-yl]-benzenesulfonamide] has a melting point of 175 °C.

With `Cc1cc(-c2ccc(C(F)(F)F)cc2)cc(-c2cccc(-c3cccc(S(=O)(=O)NC4CCOCC4)c3)n2)n1` [Example 444, 3-[6′-Methyl-4′-(4-trifluoromethyl-phenyl)-[2,2′]bipyridinyl-6-yl]-N-(tetrahydro-pyran-4-yl)-benzenesulfonamide] the melting point was 163 °C (dec.).
With `Cc1cc(-c2ccc(OC(F)(F)F)cc2)cc(-c2cccc(-c3cccc(S(N)(=O)=O)c3)n2)n1` [Example 437, 3-[6′-Methyl-4′-(4-trifluoromethoxy-phenyl)-[2,2′]bipyridinyl-6-yl]-benzenesulfonamide] the melting point was 231 °C (dec.).
In the case of `Cc1cc(-c2ccc(C(F)(F)F)cc2)nc(-c2ccnc(-c3cccc(N)c3)c2)c1` [Example 361, 3-[4-Methyl-6-(4-trifluoromethyl-phenyl)-[2,4]bipyridinyl-2′-yl]-phenylamine], the melting point is reported as 87 °C (dec.).
For `Cc1cc(-c2ccc(C(F)(F)F)cc2)cc(-c2ccnc(-c3cnc(N)nc3)c2)n1` [Example 76, 5-[6-Methyl-4-(4-trifluoromethyl-phenyl)-[2,4′]bipyridinyl-2′-yl]-pyrimidin-2-ylamine], the melting point was greater than 245 °C.
